Among the data in PubChem BioAssay (NCI) are TGI and GI50 values, retold here.

By TGI is commonly meant the concentration giving total growth inhibition. The GI50 is the concentration that inhibits growth by half.

Values joined by “and” are separate entries in the source; they are usually repeats but may differ in a detail not shown here. Identical values can stand only once.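 Cells were grown in 96-well plates and exposed to each compound for 48 hours at five concentrations; endpoints were interpolated linearly between bracketing concentrations, or set to the highest concentration if not reached. At the GI50, growth is halved. TGI: total growth inhibition.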

Among the test systems are UACC-257 melanoma; BT-549 breast; A498 renal; U251 CNS; MDA-MB-231 breast; PC-3 prostate; TK-10 renal; NCI-H23 lung; K-562 leukemia; MDA-MB-435.
Holding throughout (experiment): DTP human tumour cell line panel, 48 h

As for `CN(C)c1ccc(-c2c(C#N)c(S)n(NS(=O)(=O)c3ccccc3)c(=O)c2C#N)cc1`, the TGI with UACC-257 melanoma was over 100 µM; in the assay on BT-549 breast, 61.7 µM; in the assay on A498 renal it was over 100 µM; with U251 CNS it was over 100 µM; in the assay on MDA-MB-231 breast, over 100 µM; in the assay on PC-3 prostate it was over 100 µM. Also, the TGI was 41.4 µM in the assay with TK-10 renal, over 100 µM in the assay on NCI-H23 lung, over 100 µM in the assay with K-562 leukemia and 92.6 µM with MDA-MB-435.

As for `COP(=O)(O)/C=C/C(NC(=O)C(Cl)(Cl)Cl)c1ccccc1` (stereo not given), the TGI in the assay with UACC-257 melanoma, in the assay on BT-549 breast, with A498 renal, in the assay with U251 CNS, in the assay with MDA-MB-231 breast and in the assay on PC-3 prostate was over 100 µM throughout. Also, the TGI in the assay on TK-10 renal, in the assay with NCI-H23 lung, in the assay with K-562 leukemia and with MDA-MB-435 was over 100 µM each time.

As to `C/C(N=Nc1nc2ccccc2s1)=C1/C=CC=CN1O`, the TGI in the assay on UACC-257 melanoma, in the assay on BT-549 breast, with A498 renal, with U251 CNS, in the assay on MDA-MB-231 breast and in the assay on PC-3 prostate was over 100 µM throughout. Further, the TGI in the assay with TK-10 renal is 61.3 µM; in the assay on NCI-H23 lung, over 100 µM; with K-562 leukemia, over 100 µM; in the assay with MDA-MB-435, over 100 µM.

Regarding `CN(C)c1nc(=NCc2ccncc2)ss1`, the TGI in the assay on UACC-257 melanoma was over 61.2 µM; in the assay with BT-549 breast, 44 µM; with A498 renal, over 100 µM; with U251 CNS it was 32.1 µM; in the assay with MDA-MB-231 breast, over 54 µM; with PC-3 prostate, over 63.4 µM. Further, the TGI in the assay on TK-10 renal was over 100 µM; with NCI-H23 lung, 38.2 µM; in the assay on K-562 leukemia, 47.7 µM; in the assay on MDA-MB-435, over 100 µM.

As for `CC(C)=CCc1c2c(c3occ(-c4ccc(O)c(O)c4)c(=O)c3c1O)C=CC(C)(C)O2`, the TGI was found to be 4.89 µM with UACC-257 melanoma; 13.8 µM in the assay with BT-549 breast; 29 µM with A498 renal; 2.8 µM in the assay with U251 CNS; 2.97 µM in the assay with MDA-MB-231 breast; 3.45 µM in the assay on PC-3 prostate. In addition, the TGI in the assay with TK-10 renal is 3.67 µM; in the assay with NCI-H23 lung, 3.84 µM; with K-562 leukemia, 5.12 µM; in the assay with MDA-MB-435 it was 3.2 µM.

`C=C(C)CCC(=O)[C@](C)(O)[C@H]1[C@H](O)C[C@@]2(C)[C@@H]3CCc4c(cc(OC5OC(CO)C(O)C(O)C5O)c(O)c4C)C3(C)C(=O)C[C@]12C` (stereo not given in full): the TGI in the assay on UACC-257 melanoma, in the assay on BT-549 breast, with A498 renal, with U251 CNS, in the assay with MDA-MB-231 breast and in the assay on PC-3 prostate was over 100 µM throughout. For the same compound, the TGI in the assay on TK-10 renal, in the assay with NCI-H23 lung, in the assay on K-562 leukemia and in the assay on MDA-MB-435 was over 100 µM in each case.

With `COc1cc2c(cc1OCCCCOc1cc(-c3ccc(F)cc3)nc(C)n1)N=C[C@@H]1CCCN1C2=O`, the TGI in the assay on UACC-257 melanoma came to 1.88 µM; with BT-549 breast, 2.28 µM; in the assay with A498 renal it was 4.6 µM; with U251 CNS, 2.55 µM; in the assay on MDA-MB-231 breast, 5.18 µM; with PC-3 prostate it was 6.07 µM. Further, the total growth inhibition concentration (TGI) is 0.487 µM with TK-10 renal, 1.37 µM with NCI-H23 lung, 9.5 µM with K-562 leukemia and 1.42 µM in the assay with MDA-MB-435.

Turning to `CC1(C)O[C@@H]2COC(=O)[C@@H]2O1`, the TGI with UACC-257 melanoma, with BT-549 breast, in the assay on A498 renal, in the assay on U251 CNS, in the assay with MDA-MB-231 breast and in the assay with PC-3 prostate was over 100 µM in each case. Further, the TGI in the assay with TK-10 renal, with NCI-H23 lung, in the assay on K-562 leukemia and in the assay on MDA-MB-435 was over 100 µM throughout.

In the case of `C=C1C(=O)OC2/C=C(\CO)C(OC(C)=O)CC(O)/C(C)=C/C(OC(=O)C(C)CC)C12` (stereo not given), the TGI is 28.9 µM and 38.5 µM in the assay with UACC-257 melanoma; 36.9 µM with BT-549 breast; 91.9 µM and 88.7 µM in the assay with A498 renal; > 91.6 µM and 66.3 µM in the assay on U251 CNS; 32.7 µM in the assay with MDA-MB-231 breast; over 100 µM with PC-3 prostate. The total growth inhibition concentration (TGI) was 36 µM and 38.7 µM with TK-10 renal; 32.1 µM and 59.9 µM in the assay on NCI-H23 lung; 21.4 µM and > 100 µM in the assay with K-562 leukemia; 47.6 µM in the assay with MDA-MB-435. Further, in the assay on K-562 leukemia, the GI50 is 5.62 µM and 36.9 µM.

As to `CCCCCCCCCC[C@H](O)[C@H]1CC[C@H]([C@H]2CC[C@H]([C@H](O)CC[C@H](O)CCCCCCC[C@@H](O)CC3=C[C@H](C)OC3=O)O2)O1`, the TGI with UACC-257 melanoma, with BT-549 breast, with A498 renal, in the assay with U251 CNS, in the assay with MDA-MB-231 breast and in the assay with PC-3 prostate was over 100 µM each time. Moreover, the TGI was over 100 µM in the assay on TK-10 renal, over 100 µM in the assay with NCI-H23 lung, 67.8 µM in the assay with K-562 leukemia and over 100 µM in the assay with MDA-MB-435. Also, the GI50 with A498 renal is 89.4 µM; in the assay on U251 CNS, over 100 µM; with MDA-MB-231 breast, over 100 µM; in the assay with MDA-MB-435, 40.3 µM.

As to `COc1ccc2c(c1)O/C(=C\c1cccc(OCC(=O)Nc3nc4c(s3)CCCC4)c1)C2=O`, the GI50 is over 100 µM in the assay with UACC-257 melanoma; over 51.1 µM with BT-549 breast; over 42.5 µM with A498 renal; 2.8 µM in the assay with U251 CNS; 6.58 µM with MDA-MB-231 breast; 12.7 µM in the assay with PC-3 prostate. Further, the GI50 in the assay with TK-10 renal is over 100 µM; in the assay on NCI-H23 lung it was 5.52 µM; in the assay with K-562 leukemia it was 4.08 µM; in the assay on MDA-MB-435, over 43.3 µM. For the same compound, the TGI was over 100 µM with UACC-257 melanoma; over 100 µM with BT-549 breast; over 100 µM with A498 renal; 8.31 µM with U251 CNS; over 53.9 µM in the assay on MDA-MB-231 breast; over 60.1 µM in the assay with PC-3 prostate. The total growth inhibition concentration (TGI) with TK-10 renal was over 100 µM; in the assay with NCI-H23 lung it was over 100 µM; with K-562 leukemia, over 78.3 µM; with MDA-MB-435, over 100 µM.

As to `O=C1CCSSCCC(=O)NCCN1`, the TGI with UACC-257 melanoma, with BT-549 breast, in the assay on A498 renal, with U251 CNS, with MDA-MB-231 breast and with PC-3 prostate was over 100 µM throughout. Further, the TGI in the assay on TK-10 renal, in the assay with NCI-H23 lung, with K-562 leukemia and with MDA-MB-435 was over 100 µM in each case.
